Experimental data: patent publication EP0083750A1, “Antimycotic azolyl butanols” (BAYER AG, priority 1981, dated 1983)
In brackets after ≈: the same amount, converted by molar mass.

Legend:
Trichophyton mentagr. = assay: Antimycotic in-vitro activity, serial dilution test (MIC); assay type: cell-based; settings: 96 h, Reihenverdünnungstest, 5 x 10^4 Keimen/ml Substrat, Sabourand's milieu d'epreuve, 20°C, 96 Stunden, read-out: MHK-Werte in γ/ml Nährmedium, Trichophyton mentagr.
Procedure: (§1) Versuchsbeschreibung: • Die in-vitro-Prüfungen wurden im Reihenverdünnungstest mit Keiminokula von durchschnittlich 5 x 10^4 Keimen/ml Substrat durchgeführt. Als Nährmedium dienten • a) für Dermatophyten und Schimmelpilze: Sabourand's milieu d'epreuve • b) für Hefen: • Fleischextrakt-Traubenzucker-Bouillon.
(§2) Die Bebrütungstemperatur betrug 20°C, die Bebrütungsdauer lag bei 24 bis 96 Stunden bei Hefen und 96 Stunden bei Dermatophyten und Schimmelpilzen.

Candida albicans = assay: as above; assay type: cell-based; settings: Reihenverdünnungstest, 5 x 10^4 Keimen/ml Substrat, Fleischextrakt-Traubenzucker-Bouillon, 20°C, 24 bis 96 Stunden, read-out: MHK-Werte in γ/ml Nährmedium, Candida albicans
Procedure: as §1, §2

Candida-Zellen = assay: Antimycotic in-vivo activity (oral) in mouse candidosis; design: species or system Mäuse vom Typ SPF-CF1; key to Wirkung (Überlebende am 6.Tag p.i.): +++++: = sehr gute Wirkung = 90 % Überlebende am 6.Tag p.i.; ++++: = gute Wirkung = 80 % Überlebende am 6.Tag p.i.; +++: = Wirkung = 60 % Überlebende am 6.Tag p.i.; ++: = schwache Wirkung = 40 % Überlebende am 6.Tag p.i.; +: = Spur Wirkung = unter 40 % Überlebende am 6. Tag; k.W.: = keine Wirkung; settings: for Wirkung (Überlebende am 6.Tag p.i.): Mäuse SPF-CF1, intravenös infiziert mit 1 - 2 x 10^6 Candida-Zellen, jeweils 50 - 100 mg/kg oral, 1 Stunde vor und 7 Stunden nach Infektion; for Wirkung im Vergleich zu den bekannten Verbindungen (A) und (B): Mäusecandidose, oral
Procedure: Antimykotische in-vivo-Wirksamkeit (oral) bei Mäusecandidose
Mäuse vom Typ SPF-CF1 wurden intravenös mit 1 - 2 x 10^6 logarithmisch wachsenden Candida-Zellen, die in physiologischer Kochsalzlösung suspendiert werden, infiziert. Eine Stunde vor und sieben Stunden nach der Infektion werden die Tiere mit jeweils 50 - 100 mg/kg Körpergewicht der Präparate oral behandelt.
Unbehandelte Tiere starben 3 bis 6 Tage post infektionem. Die Überlebensrate am 6. Tag post infektionem betrug bei unbehandelten Kontrolltieren etwa 5 %.

[1] = test system: Dermatophyten, Schimmelpilze, Hefen; assay: Antimycotic in-vitro activity, serial dilution test, overall comparison with prior art; assay type: cell-based; settings: in-vitro Reihenverdünnungstest
Procedure: as §1, §2

Torulopsis glabrata = assay: Antimycotic in-vitro activity, serial dilution test (MIC); assay type: cell-based; settings: Nakaseomyces glabratus; Reihenverdünnungstest, 5 x 10^4 Keimen/ml Substrat, Fleischextrakt-Traubenzucker-Bouillon, 20°C, 24 bis 96 Stunden; read-out: MHK-Werte in γ/ml Nährmedium, Torulopsis glabrata
Procedure: as §1, §2

Microsporum canis = assay: as above; assay type: cell-based; settings: 96 h, Reihenverdünnungstest, 5 x 10^4 Keimen/ml Substrat, Sabourand's milieu d'epreuve, 20°C, 96 Stunden, read-out: MHK-Werte in γ/ml Nährmedium, Microsporum canis
Procedure: as §1, §2

Aspergillus fumig. = assay: as above; assay type: cell-based; settings: 96 h, Reihenverdünnungstest, 5 x 10^4 Keimen/ml Substrat, Sabourand's milieu d'epreuve, 20°C, 96 Stunden, read-out: MHK-Werte in γ/ml Nährmedium, Aspergillus fumig.
Procedure: as §1, §2

[2] = test system: Trichophyton von mentagrophytes; assay: Antimycotic in-vivo activity (local) in experimental guinea pig trichophytosis; settings: Meerschweinchen-Trichophytie, lokal
Excerpt: Antimikrobielle in-vivo-Wirksamkeit (lokal) am Modell der experimentellen Meerschweinchen-Trichophytie
Weiße Mäuse der Rasse Pirbright-white wurden auf dem geschorenen, nicht skarifizierten Rücken mit einer Mikro-und Makrokonidien-Suspension von Trichophyton von mentagrophytes infiziert.
Die infizierten Tieren wurden, beginnend mit dem 3. Tag p.i., 1 x täglich mit einer 15%-igen Lösung der erfindungsgemäßen Präparate (in Dimethylsulfoxid : Glycerin = 1 : 4) lokal behandelt.
Bei unbehandelten Tieren entwickelte sich innerhalb 12 Tagen p.i. das typische Bild einer Dermatophytose mit Rötung, Schuppung und Haarausfall bis zum totalen Integument-Defekt an der Infektionsstelle.

Row | Structure (SMILES) | MIC (Trichophyton mentagr.) | MIC (Candida albicans) | MIC (Torulopsis glabrata) | MIC (Microsporum canis) | MIC (Aspergillus fumig.) | Wirkung (Überlebende am 6.Tag p.i.) (Candida-Zellen) | antimykotische Wirkung im Vergleich zu den bekannten Verbindungen (A) und (B) [1] | Wirkung [2] | Wirkung im Vergleich zu den bekannten Verbindungen (A) und (B) (Candida-Zellen)
1 | CC(C(O)c1ccc(Cl)cc1)n1cncn1 (centres unmarked) [(A), reference compound] | > 64 µg/mL | > 64 µg/mL |  |  |  | k.W. |  |  | 
2 | CC(C)(COc1ccc(Cl)cc1)C(O)C(CC1CCCCC1)n1ccnc1 (centres unmarked) [Beispiel 20] | < 1 µg/mL | < 1 µg/mL | 8 µg/mL (≈ 20.5 µM) | 4 µg/mL (≈ 10.2 µM) | 4 µg/mL (≈ 10.2 µM) | ++++ (= gute Wirkung = 80 % Überlebende am 6.Tag p.i.) | bessere antimykotische Wirkung | gute bis sehr gute Wirkung | bessere Wirkung
3 | CC(C)(Cc1ccc(Cl)cc1)C(O)C(Cc1ccccc1)n1ccnc1 (centres unmarked) [Beispiel 128] | < 1 µg/mL | < 1 µg/mL | 8 µg/mL (≈ 21.7 µM) | 16 µg/mL (≈ 43.4 µM) | 8 µg/mL (≈ 21.7 µM) | ++++ (= gute Wirkung = 80 % Überlebende am 6.Tag p.i.) | bessere antimykotische Wirkung |  | bessere Wirkung
4 | CCCCC(C(O)C(C)(C)Oc1ccc(C(=O)OCC)cc1)n1cncn1 (centres unmarked) [Beispiel 62] | 2 µg/mL (≈ 5.33 µM) | 8 µg/mL (≈ 21.3 µM) | 32 µg/mL (≈ 85.2 µM) | 8 µg/mL (≈ 21.3 µM) | 8 µg/mL (≈ 21.3 µM) |  | bessere antimykotische Wirkung |  | 
5 | CCCCC(C(O)C(C)(C)COc1ccc(Br)cc1)n1cncn1 (centres unmarked) [Beispiel 46] | < 1 µg/mL | < 1 µg/mL | < 1 µg/mL | < 1 µg/mL | 4 µg/mL (≈ 10.1 µM) | ++++ (= gute Wirkung = 80 % Überlebende am 6.Tag p.i.) | bessere antimykotische Wirkung | gute bis sehr gute Wirkung | bessere Wirkung
6 | COCC(C)(C)C(O)C(Cc1ccc(Cl)cc1)n1cncn1 (centres unmarked) [Beispiel 9] | 4 µg/mL (≈ 12.4 µM) | 8 µg/mL (≈ 24.7 µM) | 32 µg/mL (≈ 98.8 µM) | 4 µg/mL (≈ 12.4 µM) | 16 µg/mL (≈ 49.4 µM) |  | bessere antimykotische Wirkung |  | 
7 | CC(C)(COc1ccc(Br)cc1)C(O)C(CCOc1ccc(Cl)cc1Cl)n1cncn1 (centres unmarked) [Beispiel 45] | < 1 µg/mL | < 1 µg/mL | 4 µg/mL (≈ 7.56 µM) | 8 µg/mL (≈ 15.1 µM) | 32 µg/mL (≈ 60.5 µM) |  | bessere antimykotische Wirkung |  | 
8 | CC(C)(COc1ccc(Cl)cc1)C(O)C(CC1CCCCC1)n1cncn1 (centres unmarked) [Beispiel 2, 1-(4-Chlorphenoxy)-5-cyclohexyl-2,2-dimethyl-4-(1,2,4-triazol-1-yl)-pentan-3-ol] | < 1 µg/mL | < 1 µg/mL | < 1 µg/mL | 2 µg/mL (≈ 5.1 µM) | 2 µg/mL (≈ 5.1 µM) |  | bessere antimykotische Wirkung |  | 

Second part, led by results:

Row | MIC (Trichophyton mentagr.) | MIC (Candida albicans) | MIC (Torulopsis glabrata) | MIC (Microsporum canis) | MIC (Aspergillus fumig.) | Structure (SMILES) | Wirkung (Überlebende am 6.Tag p.i.) (Candida-Zellen) | antimykotische Wirkung im Vergleich zu den bekannten Verbindungen (A) und (B) [1] | Wirkung [2] | Wirkung im Vergleich zu den bekannten Verbindungen (A) und (B) (Candida-Zellen)
9 | < 1 µg/mL | < 1 µg/mL | < 1 µg/mL | < 1 µg/mL | 64 µg/mL (≈ 141 µM) | CC(C)(COc1ccc(Cl)cc1)C(O)C(Cc1ccc(Cl)cc1Cl)n1cncn1 (centres unmarked) [Beispiel 11] | ++ (= schwache Wirkung = 40 % Überlebende am 6.Tag p.i.) | bessere antimykotische Wirkung | gute bis sehr gute Wirkung | bessere Wirkung
10 | 4 µg/mL (≈ 13.3 µM) | > 64 µg/mL |  | > 64 µg/mL | > 64 µg/mL | OC(Cn1cncn1)c1ccc(-c2ccc(Cl)cc2)cc1 (centres unmarked) [(B), reference compound] | k.W. |  |  | 
11 | < 1 µg/mL | < 1 µg/mL | 2 µg/mL (≈ 4.81 µM) | 8 µg/mL (≈ 19.2 µM) | 16 µg/mL (≈ 38.5 µM) | COc1cccc(CC(C(O)C(C)(C)COc2ccc(Cl)cc2)n2cncn2)c1 (centres unmarked) [Beispiel 87] | ++ (= schwache Wirkung = 40 % Überlebende am 6.Tag p.i.) | bessere antimykotische Wirkung |  | bessere Wirkung
12 | < 1 µg/mL | 8 µg/mL (≈ 20.3 µM) | 32 µg/mL (≈ 81.3 µM) | 8 µg/mL (≈ 20.3 µM) | 4 µg/mL (≈ 10.2 µM) | CCCCC(C(O)C(C)(C)COc1ccc(-c2ccccc2)cc1)n1cncn1 (centres unmarked) [Beispiel 100] | +++ (= Wirkung = 60 % Überlebende am 6.Tag p.i.) | bessere antimykotische Wirkung |  | bessere Wirkung
13 | 2 µg/mL (≈ 4.92 µM) | 16 µg/mL (≈ 39.4 µM) | 64 µg/mL (≈ 158 µM) | 4 µg/mL (≈ 9.84 µM) | 16 µg/mL (≈ 39.4 µM) | CC(C)(Oc1ccc(Cl)cc1Cl)C(O)C(Cc1ccccc1)n1cncn1 (centres unmarked) [Beispiel 28] |  | bessere antimykotische Wirkung |  | 
